# Assay results: publication PMC13411385, “Methyl on the Bridge: 2‐Methyl Propellane as Precursor for 1,3‐Substituted 2‐Methylated Bicyclo[1.1.1]Pentanes” (Chemistry (Weinheim an Der Bergstrasse, Germany), 2025)
# Legend:
# [1] = design: method as in PMID 31894985; settings: between 2,2‐difluorobutanol and 2,2‐difluoropentanol; cited from earlier work
# [2] = octanol‐water partition coefficient (logP) by 19F NMR‐based protocol; format: physicochemical; settings: for logP: measured octanol‐water partition coefficient, 19F NMR‐based protocol; for increase in lipophilicity on addition of a methyl group: methylated compound vs its nonmethylated analogue (46a vs 46b; 47a vs 47b)
# Text: The effect of the added bridge‐methyl group on physicochemical properties was investigated.
# Figure 2 Comparison of measured octanol‐water partition coefficients between phenyl, tolyl, BCP, and 2‐MeBCP.
smiles,measurement,setting,value
"CCCC(F)(F)CO [2,2‐difluoropentanol]",ΔlogP,[1],0.58 logP units
"CC1C2CC1(C(F)(F)CO)C2 (stereo not shown) [46a, 2,2‐difluoro‐2‐(2‐methylbicyclo[1.1.1]pentan‐1‐yl)ethan‐1‐ol]",logP,[2],2.11
same,increase in lipophilicity on addition of a methyl group,[2],0.54 logP units
"OCC(F)(F)C12CC(C1)C2 [46b, 2‐(bicyclo[1.1.1]pentan‐1‐yl)‐2,2‐difluoroethan‐1‐ol]",logP,[2],1.57
"Cc1ccccc1C(F)(F)CO [47a, 2,2‐difluoro‐2‐(o‐tolyl)ethan‐1‐ol]",logP,[2],2.03
same,increase in lipophilicity on addition of a methyl group,[2],0.46 logP units
"OCC(F)(F)c1ccccc1 [47b, 2,2‐difluoro‐2‐phenylethan‐1‐ol]",logP,[2],1.57
